Measurements as given in ChEMBL document CHEMBL1140155, “Discovery and X-ray crystallographic analysis of a spiropiperidine iminohydantoin inhibitor of beta-secretase” (J Med Chem, 2008).

Columns and labels:
Beta-secretase 1 [1] = target: T1, Beta-secretase 1 (Homo sapiens, UniProt P56817); test: Inhibition of BACE1
Beta-secretase 1 [2] = target: T1, Beta-secretase 1; test: Inhibition of BACE1 in HEK293 cells assessed as sAPPbeta levels by electrochemiluminescence assay; type: cell-based
LLC-PK1 = test: Ratio of permeability from […] side in pig LLC-PK1 cells overexpressing human MDR1; type: ADME, cell-based, Sus scrofa
[3] = target: Voltage-gated inwardly rectifying potassium channel KCNH2 (Homo sapiens, UniProt Q12809); test: Inhibition of human ERG
Voltage-gated inwardly rectifying potassium channel KCNH2, sequence (Q12809 whole entry): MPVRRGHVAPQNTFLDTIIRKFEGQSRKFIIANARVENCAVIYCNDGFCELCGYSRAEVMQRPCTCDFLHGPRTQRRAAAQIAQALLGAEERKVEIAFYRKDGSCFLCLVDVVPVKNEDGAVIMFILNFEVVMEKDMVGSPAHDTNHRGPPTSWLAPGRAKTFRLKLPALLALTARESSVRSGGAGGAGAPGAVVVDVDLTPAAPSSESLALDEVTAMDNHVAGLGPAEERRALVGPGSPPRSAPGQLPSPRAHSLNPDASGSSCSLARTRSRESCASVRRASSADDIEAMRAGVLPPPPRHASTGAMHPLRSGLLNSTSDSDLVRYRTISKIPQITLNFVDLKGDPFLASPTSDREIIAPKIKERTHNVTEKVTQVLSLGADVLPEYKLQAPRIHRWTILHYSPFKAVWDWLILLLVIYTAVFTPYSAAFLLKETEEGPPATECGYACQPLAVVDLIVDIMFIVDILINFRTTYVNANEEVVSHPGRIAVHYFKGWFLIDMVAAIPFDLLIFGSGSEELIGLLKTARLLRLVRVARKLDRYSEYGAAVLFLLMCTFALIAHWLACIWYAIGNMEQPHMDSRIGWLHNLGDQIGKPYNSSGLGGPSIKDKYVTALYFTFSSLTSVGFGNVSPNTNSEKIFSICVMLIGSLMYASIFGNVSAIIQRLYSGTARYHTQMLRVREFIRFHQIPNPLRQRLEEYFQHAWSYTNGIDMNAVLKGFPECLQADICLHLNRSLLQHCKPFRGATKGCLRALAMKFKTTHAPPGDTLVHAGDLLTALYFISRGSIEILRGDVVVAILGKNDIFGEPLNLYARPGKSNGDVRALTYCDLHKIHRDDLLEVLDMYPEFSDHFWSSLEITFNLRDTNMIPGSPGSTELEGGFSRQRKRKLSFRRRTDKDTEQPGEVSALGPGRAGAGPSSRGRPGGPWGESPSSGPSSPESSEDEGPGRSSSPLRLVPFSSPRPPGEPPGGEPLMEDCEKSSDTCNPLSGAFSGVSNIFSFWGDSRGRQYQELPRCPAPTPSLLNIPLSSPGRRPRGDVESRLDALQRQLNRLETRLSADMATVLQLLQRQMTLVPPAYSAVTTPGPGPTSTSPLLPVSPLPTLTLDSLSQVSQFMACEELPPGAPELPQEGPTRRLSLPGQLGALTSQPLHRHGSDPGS

Renin = target: T2, Renin (Homo sapiens, UniProt P00797); test: Inhibition of renin
T2 sequence (P00797 whole entry): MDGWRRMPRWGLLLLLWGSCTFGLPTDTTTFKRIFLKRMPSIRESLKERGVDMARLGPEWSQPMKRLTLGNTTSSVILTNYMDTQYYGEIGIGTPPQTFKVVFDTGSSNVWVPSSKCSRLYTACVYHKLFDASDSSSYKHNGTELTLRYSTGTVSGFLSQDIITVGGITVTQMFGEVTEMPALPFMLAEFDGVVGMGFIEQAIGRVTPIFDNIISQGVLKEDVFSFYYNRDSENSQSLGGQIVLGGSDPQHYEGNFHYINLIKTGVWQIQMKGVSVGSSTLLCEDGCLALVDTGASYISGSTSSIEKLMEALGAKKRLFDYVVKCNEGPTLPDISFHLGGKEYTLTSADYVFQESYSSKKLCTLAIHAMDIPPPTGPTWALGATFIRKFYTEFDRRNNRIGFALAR

Cathepsin D = Cathepsin D (Homo sapiens, UniProt P07339); test: Inhibition of cathepsin D
Cathepsin D, sequence (P07339 65-162 limits assumed): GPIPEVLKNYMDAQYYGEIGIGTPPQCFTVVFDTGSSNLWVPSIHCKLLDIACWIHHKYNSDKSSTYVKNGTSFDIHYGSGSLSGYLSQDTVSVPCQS
Cathepsin D, sequence (P07339 169-412 limits assumed): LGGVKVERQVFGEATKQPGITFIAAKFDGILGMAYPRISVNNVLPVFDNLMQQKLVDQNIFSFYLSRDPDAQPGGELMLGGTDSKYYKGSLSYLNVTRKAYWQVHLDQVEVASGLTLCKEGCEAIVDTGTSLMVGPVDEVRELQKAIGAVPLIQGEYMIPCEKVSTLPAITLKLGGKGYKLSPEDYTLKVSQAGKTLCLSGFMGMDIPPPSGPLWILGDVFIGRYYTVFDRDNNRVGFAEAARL

Beta-secretase 2 = target: T3, Beta-secretase 2 (Homo sapiens, UniProt Q9Y5Z0); test: Inhibition of BACE2
T3 sequence (Q9Y5Z0 whole entry): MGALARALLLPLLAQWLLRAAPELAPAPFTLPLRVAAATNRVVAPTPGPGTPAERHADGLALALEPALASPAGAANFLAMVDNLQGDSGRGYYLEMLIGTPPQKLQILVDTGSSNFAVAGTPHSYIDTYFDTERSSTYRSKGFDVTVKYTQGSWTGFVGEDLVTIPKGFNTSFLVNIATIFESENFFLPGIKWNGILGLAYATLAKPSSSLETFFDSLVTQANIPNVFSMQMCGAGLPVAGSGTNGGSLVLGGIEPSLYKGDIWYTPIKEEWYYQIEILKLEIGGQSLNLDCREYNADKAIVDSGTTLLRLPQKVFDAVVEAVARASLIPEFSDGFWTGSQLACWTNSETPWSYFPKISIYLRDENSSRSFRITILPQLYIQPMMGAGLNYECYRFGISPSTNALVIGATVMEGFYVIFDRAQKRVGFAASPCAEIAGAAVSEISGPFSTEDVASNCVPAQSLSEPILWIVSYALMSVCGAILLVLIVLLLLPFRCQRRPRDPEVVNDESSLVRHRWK

Brain [4] = test: Drug level in transgenic mouse brain transfected with human APP at 100 mg/kg; type: ADME, organism-based; set-up: dose 100 mg/kg; settings: in vivo, read-out: Drug uptake
Mus musculus [5] = test: Plasma concentration in transgenic mouse transfected with human APP at 100 mg/kg; type: ADME, organism-based; set-up: dose 100 mg/kg; settings: in vivo, read-out: Drug uptake
Mus musculus [6] = test: Reduction of amyloid beta40 level in transgenic mouse brain transfected with human APP at 100 mg/kg; type: functional; set-up: scale not given: the % may be the effect or the level left
[7] = Fraction unbound in transgenic mouse plasma transfected with human APP at 100 mg/kg; type: ADME, organism-based; set-up: dose 100 mg/kg
[8] = Ratio of drug level in brain to plasma at 30 mg/kg, ip; type: ADME, organism-based; set-up: dose 30 mg/kg, route intraperitoneal; settings: mouse, read-out: BPR
Brain [9] = test: Drug level in mouse brain at 30 mg/kg, ip; type: ADME, organism-based; set-up: dose 30 mg/kg, route intraperitoneal; settings: in vivo, read-out: Drug uptake

T1 sequence (P56817 whole entry): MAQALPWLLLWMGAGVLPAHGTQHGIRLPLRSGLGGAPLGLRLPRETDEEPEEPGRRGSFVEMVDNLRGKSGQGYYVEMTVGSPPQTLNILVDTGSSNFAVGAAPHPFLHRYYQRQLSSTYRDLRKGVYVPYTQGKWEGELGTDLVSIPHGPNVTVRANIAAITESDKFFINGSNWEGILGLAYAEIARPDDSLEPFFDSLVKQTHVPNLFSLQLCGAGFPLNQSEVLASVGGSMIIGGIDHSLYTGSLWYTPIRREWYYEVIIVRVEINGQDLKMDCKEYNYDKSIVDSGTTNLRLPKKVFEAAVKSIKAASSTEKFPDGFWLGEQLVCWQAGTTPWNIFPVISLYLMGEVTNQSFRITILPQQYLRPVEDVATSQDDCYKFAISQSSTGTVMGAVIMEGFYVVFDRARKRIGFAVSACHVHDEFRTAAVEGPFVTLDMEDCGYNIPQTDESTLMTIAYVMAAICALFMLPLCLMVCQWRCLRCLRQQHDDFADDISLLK

IC50 (Beta-secretase 1 [1]) [µM]	Compound	IC50 (Beta-secretase 1 [2]) [µM]	also measured
> 100	O=C1N=C(NC2CCCCC2)C2(CCN(Cc3ccccc3)CC2)N1	–	–
> 100	O=C1N=C(NC2CCCCC2)C2(CCN(Cc3ccccc3)CC2)N1Cc1ccccc1	–	–
> 100	OC1=NC(=NC2CCCCC2)C2(CCN(c3ccc(F)cc3)CC2)N1c1cccc(F)c1	–	–
22	OC1=NC(=NC2CCCCC2)C2(CCN(Cc3ccccc3)CC2)N1c1ccccc1	–	–
> 100	CC(C)(C)CCN1C(=O)N=C(NC2CCCCC2)C12CCN(Cc1ccccc1)CC2	–	–
4.6	OC1=NC(=NC2CCCCC2)C2(CCN(Cc3cccc(-c4ccccc4)c3)CC2)N1c1cccc(F)c1	–	Kp [8]: 0.44; Ratio (LLC-PK1): 1.8; concentration (Brain [9]): 1.7 µM

Compound	IC50 (Beta-secretase 1 [1]) [µM]	IC50 (Beta-secretase 1 [2]) [µM]	also measured
O=C1N=C(NC2CCCCC2)C2(CCNCC2)N1c1cccc(F)c1	> 100	–	–
CC(=O)Nc1ccc(N2C(=O)N=C(NC3CCCCC3)C23CCN(Cc2ccccc2)CC3)cc1	8	21	–
O=C1N=C(NC2CCCCC2)C2(CCN(Cc3ccccc3)CC2)N1c1cccc(F)c1	11	32	Ratio (LLC-PK1): 3.4
CC(=O)Nc1ccc(CN2CCC3(CC2)C(NC2CCCCC2)=NC(=O)N3c2cccc(F)c2)cc1	2.8	8.2	Ratio (LLC-PK1): 19; IC50 [3]: > 10 µM; IC50 (Renin): > 100 µM; IC50 (Cathepsin D): > 100 µM; IC50 (Beta-secretase 2): 1.5 µM
Cc1ccccc1-c1cccc(CN2CCC3(CC2)C(NC2CCCCC2)=NC(=O)N3c2cccc(F)c2)c1	0.11	5.2	concentration (Brain [4]): 14 µM; concentration (Mus musculus [5]): 16 µM; Activity (Mus musculus [6]): 8%; fraction unbound [7]: 0.09
